{"source": "patent US20080233209A1", "about": "“Composition and method of use for the treatment of metabolic syndrome and inflammation” (POLIFENOLES NATURALES, SL, priority 2007, published 2008)", "key": {"[1]": {"assay": "Energy expenditure rate (EER) by indirect calorimetry, 16-week double-blind placebo-controlled trial in obese non-diabetic female volunteers with NAFLD (Example 1)", "assay_type": "in vivo, human", "design": "key to Effects on EER: NE = No effect; * = significant vs. placebo and vs. baseline, p < 0.05% at the week listed for the duration of the study; *** = significant vs. placebo and vs. baseline, p < 0.001%", "conditions": "for Effects on EER: 16 weeks", "source_text": "The objectives of the study were to investigate the effects of different doses of a brown marine vegetable extract standardized by fucoxanthin content, pomegranate seed oil containing a minimum of 70% punicic acid, and the phytomedicine combining, both of fucoxanthin and pomegranate seed oil, on energy expenditure rate (EER) in obese non-diabetic female volunteers with non-alcoholic fatty liver disease (NAFLD) on a moderate calorie restriction diet. Forty-one (n=41) volunteers with an average body weight of 91.5±14.4 kgs (201+9.7 lbs), body fat of 40.4±3.7 kgs (88.8+8 lbs), liver fat content above 10% and average age of 37.4±4.8 years were recruited to take part in a 16-week clinical trial. Daily meal composition was 50% carbohydrate, 30% protein and 20% fat. Food record data, body composition, EER, and blood sample analysis results were assessed on admission and every week for 16-weeks. Energy expenditure rate (EER) was measured by indirect calorimetry. Plasma levels of inflammatory markers alanine aminotransferase (ALT), aspartate aminotransferase (AST), g-glutamyltransferase (GGT) enzymes and C-reactive protein (CRP) were evaluated as measures of liver function, along with diastolic and systolic blood pressure, dual-energy X-ray absorptiometry to determine percent of lean and fat body mass, and liver fat content. Subjects were randomly assigned to one of 10 treatments or placebo (total 11 groups), which were in softgel capsules and were to be consumed with water 15 to 30 mins. before meals. Each phytomedicine soft-gel capsule provided 100 mg of Undaria pinnatifida (Phaeophyceae) brown marine vegetable extract and 100 mg of cold-pressed pomegranate (Punica granatum, Punicaceae) seed oil."}, "[2]": {"assay": "Tolerability in the 16-week clinical trial of Example 1", "assay_type": "in vivo, human", "description": "Forty-one (n=41) volunteers with an average body weight of 91.5±14.4 kgs (201+9.7 lbs), body fat of 40.4±3.7 kgs (88.8+8 lbs), liver fat content above 10% and average age of 37.4±4.8 years were recruited to take part in a 16-week clinical trial. Daily meal composition was 50% carbohydrate, 30% protein and 20% fat. Food record data, body composition, EER, and blood sample analysis results were assessed on admission and every week for 16-weeks. Energy expenditure rate (EER) was measured by indirect calorimetry. Plasma levels of inflammatory markers alanine aminotransferase (ALT), aspartate aminotransferase (AST), g-glutamyltransferase (GGT) enzymes and C-reactive protein (CRP) were evaluated as measures of liver function, along with diastolic and systolic blood pressure, dual-energy X-ray absorptiometry to determine percent of lean and fat body mass, and liver fat content.\nSubjects were randomly assigned to one of 10 treatments or placebo (total 11 groups), which were in softgel capsules and were to be consumed with water 15 to 30 mins. before meals. Each phytomedicine soft-gel capsule provided 100 mg of Undaria pinnatifida (Phaeophyceae) brown marine vegetable extract and 100 mg of cold-pressed pomegranate (Punica granatum, Punicaceae) seed oil.\nAll subjects completed 16 weeks clinical trial without any reported adverse effects. […]"}, "[3]": {"conditions": "fucoxanthin, wistar rats; cited from earlier work"}, "[4]": {"conditions": "fucoxanthin, cited from earlier work"}, "[5]": {"test_system": "mitochondrial uncoupling protein 1 (UCP1)", "conditions": "fucoxanthin; cited from earlier work"}}, "note": "“Also recorded” adds a separate entry of the source. Where two headings read alike, the source gives them in different places."}
{"substance": "fucoxanthin", "values": [{"measurement": "Effects on EER vs. placebo and baseline", "setting": "[1]; 8.40 mg fucoxanthin", "result": "highly significant"}, {"measurement": "Effects on EER vs. those of 4.20 mg fucoxanthin", "setting": "[1]; 8.40 mg fucoxanthin", "result": "significant"}, {"measurement": "minimum doses that resulted in statistically significant increases in EER", "setting": "[1]; 16-week trial, fucoxanthin as mg fucoxanthin/day", "result": 2.52, "unit": "mg"}, {"measurement": "Effects on EER", "setting": "[1]; Fucoxanthin 1.68 mg/day", "result": "NE"}, {"measurement": "Effects on EER", "setting": "[1]; Fucoxanthin 2.52 mg/day", "result": "* (* = significant vs. placebo and vs. baseline, p < 0.05% at the week listed for the duration of the study)"}, {"measurement": "Effects on EER", "setting": "[1]; Fucoxanthin 4.20 mg/day", "result": "* (* = significant vs. placebo and vs. baseline, p < 0.05% at the week listed for the duration of the study)"}, {"measurement": "Effects on EER", "setting": "[1]; Fucoxanthin 8.40 mg/day", "result": "*** (*** = significant vs. placebo and vs. baseline, p < 0.001%)"}, {"measurement": "EER in obese subjects (overall)", "setting": "[1]; oral supplementation, effect dose-dependent and time-dependent", "result": "increased; also recorded: statistically significant dose-dependent increase"}, {"measurement": "tolerability", "setting": "[2]; 16 weeks, all subjects, no reported adverse effects", "result": "well tolerated"}, {"measurement": "WAT", "setting": "[3]", "result": "reduced WAT"}, {"measurement": "body weight", "setting": "[4]; KK-Ay mice", "result": "significant reduction"}, {"measurement": "WAT", "setting": "[4]; obese KK-Ay mice", "result": "reduced WAT"}, {"measurement": "expression of uncoupling protein UCP1 gene in white adipose tissue (WAT)", "setting": "[5]", "result": "upregulates"}]}
{"substance": "Pomegranate Seed Oil", "values": [{"measurement": "tolerability", "setting": "[2]; human, in vivo", "result": "well tolerated"}]}
